Measured values from patent US10034886B2, “GLP-1 receptor modulators” (Celgene International II SÀRL, priority 2014, dated 2018).

target: T1, GLP-1R (Homo sapiens, UniProt P43220); test: EC20 GLP-1(9-36) PAM cAMP assay: dose response of compound in the presence of fixed concentration of GLP-1(9-36); assay type: cell-based; details: GLP-1R CRE-bla CHO-K1 cells, compound dose response with fixed concentration of GLP-1(9-36), read-out: EC20 GLP-1(9-36) PAM EC50
T1 construct: host or cells: GLP-1R CRE-bla CHO-K1 cells
Experimental: EC20 GLP-1(9-36) PAM cAMP Assay: Dose Response of Compound in the Presence of Fixed Concentration of GLP-1 (9-36).
GLP-1R CRE-bla CHO-K1 cells cultured in growth medium (DMEM-High glucose, 10% dialyzed FBS, 0.1 mM NEAA, 25 mM Hepes, 100 U/mL penicillin/100 μg/mL streptomycin, 5 μg/mL Blasticidin, 600 μg/mL Hygromycin) were trypsinized and plated in suspension into 384 well white flat bottom plates at 5000 cells/well in 12 μL assay buffer (Hanks Balanced Salt solution, 10 mM hepes, 0.1% BSA, pH 7.4). A 5× compound dose response curve (12-point) was generated in assay buffer containing 1.5 mM IBMX, 4% DMSO. GLP-1(9-36) was diluted to 4.2 μM in assay buffer containing 1.5 mM IMBX and 4% DMSO. The 5× compound dose response was added (3 μL), followed by 0.5 μL of GLP-1(9-36) and cells were incubated for 30 min at 37° C. Direct detection of cAMP was carried out using DiscoveRx HitHunter cAMP kit according to manufacturer's instructions and luminescence was read using a SpectraMax M5 plate reader. Luminescence was converted to total cAMP using a cAMP standard curve and data was analyzed by non-linear regression to determine the EC50 and Emax.
GLP-1(7-36): […]-NH2 (SEQ ID NO: 2). GLP-1(9-36): […]-NH2 (SEQ ID NO: 3). GLP-1(7-36) was purchased from GenScript. GLP-1(9-36) was purchased from Biopeptide Co., Inc.
The EC20GLP-1(9-36) PAM Activity range is denoted as follows: + denotes activity <0.8 μM, ++ denotes activity between 0.8 and 2.5 μM, +++ denotes activity between 2.5 and 5 μM, and ++++ denotes activity 5 to 10 μM.

T1 sequence (P43220 24-463): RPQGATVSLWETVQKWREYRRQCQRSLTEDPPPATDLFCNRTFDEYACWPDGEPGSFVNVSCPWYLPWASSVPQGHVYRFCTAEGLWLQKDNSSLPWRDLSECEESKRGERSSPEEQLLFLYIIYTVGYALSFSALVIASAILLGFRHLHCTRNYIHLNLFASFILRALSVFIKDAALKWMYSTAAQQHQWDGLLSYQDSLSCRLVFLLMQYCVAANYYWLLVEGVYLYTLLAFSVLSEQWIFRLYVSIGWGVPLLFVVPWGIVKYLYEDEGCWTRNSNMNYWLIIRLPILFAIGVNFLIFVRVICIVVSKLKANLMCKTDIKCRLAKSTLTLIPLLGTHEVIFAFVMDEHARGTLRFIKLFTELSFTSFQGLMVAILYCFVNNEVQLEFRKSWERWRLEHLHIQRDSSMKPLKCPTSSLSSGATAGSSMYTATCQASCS
T1 sequence (P01275 100-127 partner limits assumed): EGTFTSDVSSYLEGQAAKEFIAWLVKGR

Row | EC50 [µM] | Compound
1 | 0.8 to 2.5 | CCCc1ccc(C2CN(c3cnc(-c4ccc(CC(NC(=O)c5ccc(C(C)(C)C)s5)C(=O)N5CC(C(=O)O)C5)cc4)nc3)C2)cc1 (centres unmarked) [Compound 1417]
2 | < 0.8 | C[C@@H](NC(=O)[C@H](Cc1ccc(-c2ncc(-c3ccc(-c4ccc(OC(F)(F)F)cc4)cc3)cn2)cc1)NC(=O)c1ccc(C(C)(C)C)s1)C(=O)O [Compound 1314]
3 | 0.8 to 2.5 | CCCc1ccc(C(=O)N[C@@H](Cc2ccc(-c3ncc(-c4ccc(OCCCC(C)C)cc4)cn3)cc2)C(=O)N2CC(C(=O)O)C2)s1 [Compound 1240]

Row | Compound | EC50 [µM]
4 | CCC[C@H]1CC[C@H](C2CCN(c3cnc(-c4ccc(C[C@H](NC(=O)c5ccc(C(C)(C)C)s5)C(=O)N5C6CCC5[C@@H](C(=O)O)C6)cc4)nc3)CC2)CC1 (some centres unmarked) [Compound 1448] | 5 to 10

same assay, conditions: dose response of compound in presence of fixed concentration of GLP-1(9-36), GLP-1R CRE-bla CHO-K1 cells, read-out: EC20 GLP-1(9-36) PAM EC50

Row | Compound | EC50 [µM]
5 | CCCCCCCOc1ccc(-c2cnc(-c3ccc(C[C@H](NC(=O)c4ccc(C(C)(C)C)s4)C(=O)N4CC[C@H](C(=O)NS(=O)(=O)CC(F)(F)F)C4)cc3)nc2)cc1 [Compound 887] | < 0.8
6 | C[C@@H](NC(=O)[C@H](Cc1ccc(-c2ncc(-c3ccc(OCCC4CCCCC4)cc3)cn2)cc1)NC(=O)c1ccc(C(C)(C)C)cc1)C(=O)O [Compound 794] | 0.8 to 2.5
7 | CCCCOc1cccc(-c2noc(-c3cnc(-c4ccc(C[C@H](NC(=O)c5ccc(C(C)(C)C)cc5)C(=O)NCCC(=O)O)cc4)nc3)n2)c1 [Compound 759] | 0.8 to 2.5
8 | CCCCCCCCc1ccc(-c2cnc(-c3ccc(C[C@H](NC(=O)c4ccc(C(C)(C)C)cc4)C(=O)NCCC(=O)O)cc3)nc2)cc1 [Compound 683] | 0.8 to 2.5
9 | CCCCCCCOc1ccc(-c2cnc(-c3ccc(C[C@H](NC(=O)c4ccc(C(C)(C)C)cc4)C(=O)N4C[C@H](O)C[C@H]4C(=O)O)cc3)nc2)cc1 [Compound 491] | < 0.8
10 | CCCCCCCOc1ccc(-c2cnc(-c3ccc(C[C@H](NC(=O)c4ccc(C(C)(C)C)s4)C(=O)NC[C@@H](CO)C(=O)O)cc3)nc2)cc1 [Compound 461] | 0.8 to 2.5
11 | CCCCCCCOc1ccc(-c2cnc(-c3ccc(C[C@H](NC(=O)c4ccc(C(C)(C)C)s4)C(=O)NCC4(O)CCN(C)C4)cc3)nc2)cc1 (some centres unmarked) [Compound 894] | 5 to 10
12 | CCCCCCCOc1ccc(-c2cnc(-c3ccc(C[C@H](NC(=O)c4ccc(C(F)(F)F)s4)C(=O)NC(C(=O)O)C(O)c4ccccc4)cc3)nc2)cc1 (some centres unmarked) [Compound 948] | 2.5 to 5
13 | CCCCCCCOc1ccc(-c2cnc(-c3ccc(C[C@H](NC(=O)c4ccc(C(C)(C)C)s4)C(=O)N[C@@H](Cc4ccc(O)c(O)c4)C(=O)O)cc3)nc2)cc1 [Compound 601] | 0.8 to 2.5

Results, then the molecule that gave them:

Row | EC50 [µM] | Compound
14 | < 0.8 | CCCCCCCOc1ccc(-c2cnc(-c3ccc(C[C@H](NC(=O)c4ccc(C(C)(C)C)s4)C(=O)N[C@@H](Cn4cncn4)C(=O)O)cc3)nc2)cc1 [Compound 639]
15 | < 0.8 | Cc1cc(-c2ccc(-c3cnc(-c4ccc(C[C@H](NC(=O)c5ccc(C(C)(C)C)s5)C(=O)N[C@H](C)C(=O)O)cc4)nc3)c(F)c2)ccc1OC(F)(F)F [Compound 1175]
16 | 0.8 to 2.5 | CCCCCCCOc1ccc(-c2cnc(-c3ccc(C[C@H](NC(=O)c4ccc(O)c(F)c4)C(=O)NC(C(=O)O)C(O)c4ccccc4)cc3)nc2)cc1 (some centres unmarked) [Compound 960]
17 | 2.5 to 5 | CCCCCCCOc1ccc(-c2cnc(-c3ccc(C[C@H](NC(=O)c4ccc(C(C)(C)C)s4)C(=O)NC4CNC4)cc3)nc2)cc1 [Compound 985]
18 | 2.5 to 5 | CCCCCCCOc1ccc(-c2cnc(-c3ccc(C[C@H](NC(=O)c4ccc(C(C)(C)CC)cc4)C(=O)N4CC[C@H](C(=O)O)C4)cc3)nc2)cc1 [Compound 859]
19 | 0.8 to 2.5 | CCCCCCCOc1ccc(-c2cnc(-c3ccc(C[C@H](NC(=O)c4ccc(C(C)C)cc4)C(=O)N4CC(C(=O)O)C4)cc3)nc2)cc1 [Compound 1113]
20 | 0.8 to 2.5 | CCCCCCCOc1ccc(-c2cnc(-c3ccc(C[C@H](NC(=O)c4ccc(C(C)(C)C)cc4)C(=O)NC(Cc4cccnc4)C(=O)O)cc3)nc2)cc1 (some centres unmarked) [Compound 541]
